Experimental data from patent publication US20190111059A1, “COMPOSITIONS AND METHODS FOR TREATING AUTISM SPECTRUM DISORDER” (Marinus Pharmaceuticals, Inc., priority 2017, published 2019).
Entries after “also recorded” stand apart in the source; their conditions may differ. Where a name gives a salt, the structure may show the parent alone.

Experiments:
[1] = system: children with non-syndromic autism spectrum disorder (ASD) and language impairment; assay: Randomized placebo-controlled trial: Social Responsiveness Scale (SRS); format: in vivo, human; conditions: lower = less social symptoms
From the text: The Social Responsiveness Scale (“SRS”) is a 65-item questionnaire that measures social skills across five domains: Social Awareness (8 items, meaningful change 7.1), Social Cognition (12 items, meaningful change 5.8), Social Communication (22 items, meaningful change 4.2), Social Motivation (11 items, meaningful change 5.7), Autistic Mannerisms (12 items, meaningful change 5.5) and total (65 items). Each item is rated 0 to 3 with higher scores indicating greater severity. Standardized T-scores (mean 50, standard deviation 10) range 30-90. This two-arm double-blind randomized placebo-controlled parallel study with a 1:1 allocation was performed at Arkansas Children's Research Institute (Little Rock, Ark., USA) from 4 Jun. 2012 to 22 Nov. 2013. Parent and teacher questionnaires were requested at baseline and 6 and 12 weeks after starting treatment. Parents were asked to deliver baseline questionnaires to teachers or therapists. After the first visit, questionnaires were mailed to the parents and teachers at least 1 week prior to the target date of completion. Parents were asked to bring the completed teacher and parent 12-week questionnaires to the final assessment. Other questionnaires were returned in a preaddressed postage-paid envelope. The target dose of the intervention (INN: DL folinic acid calcium salt; USAN: leucovorin calcium) was 2 mg kg^−1 per day (maximum 50 mg per day) in two equally divided doses with half of the target dose given during the first 2 weeks. Dye-free, milk-product-free, vegetarian capsules were provided in three strengths (5, 10 and 25 mg) by Lee Silsby Compounding Pharmacy (Cleveland Heights, Ohio, USA). Certificate of analysis was provided for each capsule strength by an independent analytical service (Eagle Analytical Services, Houston, Tex., USA) for each batch of capsules produced. In all cases, potency was at least 99%. Secondary outcomes. Secondary outcome measures included the Ohio Autism Clinical Impression Scale (OACIS), Vineland Adaptive Behavior Scale 2nd Edition (VABS) Survey Interview Form and several questionnaires. Parents and teachers were asked to complete the Aberrant Behavior Checklist (ABC), Social Responsiveness Scale (SRS) and Behavioral Assessment System for Children 2nd Edition (BASC). Only parents were asked to complete the Autism Impact Measure (AIM) and Autism Symptoms Questionnaire (ASQ). Secondary outcome measures were analyzed using the mixed-model regression. Because of the large number of secondary outcomes, correction for multiple comparisons was conducted using the false discovery rate.

[2] = system: children with ASD and low CSF folate concentrations; conditions: high-dose; case reports and series; cited from earlier work
[3] = system: children with non-syndromic autism spectrum disorder (ASD) and language impairment; assay: Randomized placebo-controlled trial: adverse effects monitoring; format: in vivo, human
From the text: Adverse events were monitored every 3 weeks using a modification of the Dosage Record Treatment Emergent Symptom Scale. Adverse events were considered related to the treatment if they started or worsened following the start of the trial. If adverse events were persistent or severe, the parents were offered the option of halving the dose or discontinuing the intervention. The dose could only be reduced once and was never increased if reduced.
The total number of patients reporting each adverse event was compared across treatment groups using a Fisher exact test. Adverse events that were possibly, probably or definitely related to the treatments were analyzed.

[4] = system: children with ASD who were positive for at least one FRAA; assay: Controlled open-label study of high-dose folinic acid (Example 1); format: in vivo, human; conditions: 2 mg kg^−1 per day in two divided doses, maximum 50 mg per day
[5] = cited from earlier work
[6] = vs placebo, mixed-model regression
[7] = folinic acid group n = 21, 12 weeks

## Nc1nc2c(c(=O)[nH]1)N(C=O)C(CNc1ccc(C(=O)N[C@@H](CCC(=O)O)C(=O)O)cc1)CN2 (mixture of isomers) [Folinic acid, DL folinic acid calcium salt]
[1]; 2 mg kg^−1 per day, 12 weeks, baseline 75.5
  SRS Motivation, 12-week assessment mean: 70.3 T-Scores
[1]; 2 mg kg^−1 per day, 12 weeks, baseline 79.2
  SRS Awareness, 12-week assessment mean: 78.7 T-Scores
[1]; 2 mg kg^−1 per day, 12 weeks, baseline 82.5
  SRS Communication, 12-week assessment mean: 80.1 T-Scores
[1]; 2 mg kg^−1 per day, 12 weeks, baseline 83.4
  SRS Mannerisms, 12-week assessment mean: 80.5 T-Scores
[1]; 2 mg kg^−1 per day, 12 weeks, baseline 83.7
  SRS Cognition, 12-week assessment mean: 79.3 T-Scores
[1]; 2 mg kg^−1 per day, 12 weeks, baseline 84.9
  SRS Total, 12-week assessment mean: 82.2 T-Scores
[1]; [6]
  SRS Awareness, estimated effect: 0.3 T-Scores
  SRS Cognition, estimated effect: 0.8 T-Scores
  SRS Communication, estimated effect: 1.5 T-Scores
  SRS Mannerisms, estimated effect: 0.9 T-Scores
  SRS Motivation, estimated effect: 0.2 T-Scores
  SRS Total, estimated effect: 0.8 T-Scores
[2]
  Symptoms in children with ASD and low CSF folate concentrations: markedly improves symptoms
[3]; 2 mg kg^−1 per day, 12 weeks, Fisher exact test, calcium salt
  Adverse effects, difference between treatment groups (folinic acid vs placebo): no significant difference; also recorded: no significant group differences
[3]; [7]
  Aggression, incidence: (10%)
  Any adverse effect, incidence: (57%)
  Blurred vision, incidence: (0%)
  Confusion, incidence: (5%)
  Constipation, incidence: (10%)
  Decreased appetite, incidence: (10%)
  Decreased motor activity, incidence: (0%)
  Depression, incidence: (5%)
  Diarrhea, incidence: (5%)
  Dizziness, incidence: (0%)
  Drowsiness, incidence: (0%)
  Dry mouth, excessive thirst, incidence: (14%)
  Emotional lability, incidence: (5%)
  Excitement or agitation, incidence: (29%)
  Gastroesophageal reflux, incidence: (5%)
  Headache, incidence: (10%)
  Increased motor activity, incidence: (29%)
  Increased salivation, incidence: (0%)
  Increased tantrums, incidence: (5%)
  Insomnia, incidence: (29%)
  Involuntary movements, incidence: (10%)
  Nasal congestion, incidence: (0%)
  Nausea/vomiting, incidence: (0%)
  Rash, incidence: (0%)
  Restlessness, incidence: (14%)
  Stiffness, incidence: (5%)
  Sweating, incidence: (0%)
  Tremors, incidence: (0%)
  Weight gain, incidence: (10%)
  Weight loss, incidence: (5%)
[3]; folinic acid group, 2 mg kg^−1 per day, 12 weeks
  Serious adverse events: no serious adverse events
[4]
  Adverse effects: very few adverse effects reported
  Improvements in verbal communication, receptive and expressive language, attention, and stereotypical behavior: significant improvements
[5]
  Absorption following oral administration: rapidly absorbed
